# According to patent EP4273147A1, “SUBSTITUTED SPIROLACTAMS, SALTS THEREOF AND THEIR USE AS HERBICIDALLY ACTIVE SUBSTANCES” (Bayer Aktiengesellschaft, priority 2022, dated 2023):
# Assays:
# AMARE [1] = test: Herbicidal post-emergence action (Table B11); assay type: in vivo, Amaranthus retroflexus; conditions: application rate 1280 g/ha
# Outline: (§1)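 Visual rating against untreated plants (0% = as control, 100% = dead) made roughly 3 weeks after application. Weed species were grown in sandy loam pots under greenhouse conditions and sprayed at the one-leaf stage, 2–3 weeks post-sowing.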
# VERPE = test: Herbicidal pre-emergence action (Table A11); assay type: in vivo, Veronica persica; conditions: application rate 1280 g/ha; visual grading after ca. 3 weeks
# Outline: (§2)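 Two-species sowings per pot, mono- plus dicotyledonous weeds; soil type sandy loam, seed covered after sowing.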
# POAAN [2] = test: Herbicidal pre-emergence action (Table A7); assay type: in vivo, Poa annua; conditions: application rate 1280 g/ha; visual grading after ca. 3 weeks
# Outline: as §2
# KCHSC [3] = test: Herbicidal post-emergence action (Table B4); assay type: in vivo, Kochia scoparia; conditions: application rate 1280 g/ha; rated visually after about 3 weeks
# Method: (§3) Seeds of mono- and dicotyledonous weed plants were placed in plastic pots in sandy loam soil (doubly sown with in each case one species of mono- or dicotyledonous weed plants per pot), covered with soil and cultivated in a greenhouse under controlled growth conditions. 2 to 3 weeks after sowing, the test plants were treated at the one-leaf stage. […] After the test plants had been kept in the greenhouse under optimum growth conditions for about 3 weeks, the activity of the preparations was rated visually in comparison to untreated controls. For example, 100% activity = the plants have died, 0% activity = like control plants.
# ORYZA [4] = test: Pre-emergence effects on crop plants (Table D3); conditions: crop plant; application rate 80 g/ha; visual grading after ca. 3 weeks
# POAAN [5] = test: Herbicidal post-emergence action (Table B7); assay type: in vivo, Poa annua; conditions: application rate 320 g/ha
# Outline: as §1
# SETVI [6] = test: Herbicidal post-emergence action, section E (Table E8); assay type: in vivo, Setaria viridis; conditions: application rate 320 g/ha; assessed visually after ca. 3 weeks
# From the text: (§4) 2 to 3 weeks after sowing, the test plants were sprayed in the single-leaf stage.
# BRSNW [7] = test: Post-emergence effects on crop plants (Table F5); assay type: in vivo, Brassica napus; conditions: application rate 320 g/ha, crop plant BRSNW
# From the text: as §4
# ECHCG [8] = test: Herbicidal post-emergence action (Table B3); assay type: in vivo, Echinochloa crus-galli; conditions: application rate 1280 g/ha; rated visually after about 3 weeks
# Outline: as §1
# AMARE [9] = test: Herbicidal pre-emergence action (Table A8); assay type: in vivo, Amaranthus retroflexus; conditions: application rate 320 g/ha; visual grading after ca. 3 weeks vs untreated controls (100% = plants have died off, 0% = as control plants)
# Outline: as §2
# SETVI [10] = test: Herbicidal pre-emergence action, section C (Table C10); assay type: in vivo, Setaria viridis; conditions: application rate 80 g/ha; visual grading after ca. 3 weeks
# ECHCG [11] = test: Herbicidal post-emergence action, section E (Table E5); assay type: in vivo, Echinochloa crus-galli; conditions: application rate 320 g/ha; assessed visually after ca. 3 weeks
# From the text: as §4
# ALOMY [12] = test: Herbicidal post-emergence action, section E (Table E2); assay type: in vivo, Alopecurus myosuroides; conditions: application rate 320 g/ha; assessed visually after ca. 3 weeks
# From the text: as §4
# BRSNW [13] = test: Pre-emergence effects on crop plants (Table D5); assay type: in vivo, Brassica napus; conditions: crop plant; application rate 80 g/ha; visual grading after ca. 3 weeks
# MATIN [14] = test: Herbicidal pre-emergence action (Table A4); assay type: in vivo, Matricaria inodora; conditions: application rate 320 g/ha; visual grading after ca. 3 weeks
# Outline: as §2
# SETVI [15] = test: Herbicidal pre-emergence action (Table A5); assay type: in vivo, Setaria viridis; conditions: application rate 320 g/ha; visual grading after ca. 3 weeks
# Outline: as §2
# STEME [16] = test: Herbicidal post-emergence action (Table B9); assay type: in vivo, Stellaria media; conditions: application rate 1280 g/ha
# Method: as §3
# MATIN [17] = test: Herbicidal post-emergence action (Table B6); assay type: in vivo, Matricaria inodora; conditions: application rate 320 g/ha; rated visually after about 3 weeks
# Outline: as §1
# ABUTH = test: Herbicidal pre-emergence action (Table A1); assay type: in vivo, Abutilon theophrasti; conditions: application rate 1280 g/ha; visual grading after ca. 3 weeks vs untreated controls (100% = plants have died off, 0% = as control plants)
# Outline: as §2
# KCHSC [18] = test: Herbicidal pre-emergence action (Table A10); assay type: in vivo, Kochia scoparia; conditions: application rate 320 g/ha; visual grading after ca. 3 weeks
# Outline: as §2
# ZEAMX = test: Post-emergence effects on crop plants (Table F1); assay type: in vivo, Zea mays; conditions: application rate 320 g/ha, crop plant ZEAMX
# From the text: as §4
# ORYZA [19] = test: Post-emergence effects on crop plants (Table F3); assay type: in vivo, Oryza sativa; conditions: application rate 320 g/ha, crop plant ORYZA
# From the text: as §4
# LOLRI [20] = test: Herbicidal post-emergence action (Table B5); assay type: in vivo, Lolium rigidum; conditions: application rate 1280 g/ha; rated visually after about 3 weeks
# Outline: as §1
# STEME [21] = test: Herbicidal pre-emergence action (Table A6); assay type: in vivo, Stellaria media; conditions: application rate 320 g/ha; visual grading after ca. 3 weeks
# Outline: as §2
# ALOMY [22] = test: Herbicidal pre-emergence action (Table A9); assay type: in vivo, Alopecurus myosuroides; conditions: application rate 1280 g/ha; visual grading after ca. 3 weeks
# Outline: as §2
# LOLRI [23] = test: Herbicidal pre-emergence action, section C (Table C7); assay type: in vivo, Lolium rigidum; conditions: application rate 80 g/ha; visual grading after ca. 3 weeks
# MATIN [24] = test: Herbicidal pre-emergence action, section C (Table C8); assay type: in vivo, Matricaria inodora; conditions: application rate 320 g/ha; visual grading after ca. 3 weeks
# From the text: (§5) Seeds of mono- and dicotyledonous weed plants and crop plants were sown, in plastic or organic planting pots, in sandy loam and covered with soil. The compounds according to the invention, formulated in the form of wettable powders (WP) or as emulsifiable concentrates (EC), were applied to the surface of the covering soil as aqueous suspension or emulsion, with the addition of 0.5% of an additive, at an application rate of 600 1 of water/ha (converted). Following treatment, the pots were placed in a greenhouse and kept under optimum growth conditions for the test plants.
# ALOMY [25] = test: Herbicidal pre-emergence action, section C (Table C2); assay type: in vivo, Alopecurus myosuroides; conditions: application rate 320 g/ha; visual grading after ca. 3 weeks
# GLXMA [26] = test: Post-emergence effects on crop plants (Table F4); assay type: in vivo, Glycine max; conditions: application rate 320 g/ha, crop plant GLXMA
# From the text: as §4
# GLXMA [27] = test: Pre-emergence effects on crop plants (Table D4); assay type: in vivo, Glycine max; conditions: crop plant; application rate 80 g/ha; visual grading after ca. 3 weeks
# ECHCG [28] = test: Herbicidal pre-emergence action (Table A2); assay type: in vivo, Echinochloa crus-galli; conditions: application rate 320 g/ha; visual grading after ca. 3 weeks
# Outline: as §2
# AMARE [29] = test: Herbicidal pre-emergence action, section C (Table C3); assay type: in vivo, Amaranthus retroflexus; conditions: application rate 320 g/ha; visual grading after ca. 3 weeks
# From the text: as §5
# ECHCG [30] = test: Herbicidal pre-emergence action, section C (Table C6); assay type: in vivo, Echinochloa crus-galli; conditions: application rate 320 g/ha; visual grading after ca. 3 weeks
# LOLRI [31] = test: Herbicidal pre-emergence action (Table A3); assay type: in vivo, Lolium rigidum; conditions: application rate 1280 g/ha; visual grading after ca. 3 weeks
# Outline: as §2
structure (smiles),measurement,setting,value
O=C1N(Cc2cccs2)CCCC12CCCN(Cc1c(F)cccc1F)C2=O (racemic) [I-011],post-emergence activity against AMARE,AMARE [1],90%
same,pre-emergence activity against VERPE,VERPE,90%
same,pre-emergence activity against POAAN,POAAN [2],100%
same,post-emergence activity against KCHSC,KCHSC [3],90%
same,pre-emergence activity against ORYZA,ORYZA [4],10%
same,post-emergence activity against POAAN,POAAN [5],100%
same,post-emergence activity against SETVI,SETVI [6],80%
same,post-emergence activity against BRSNW,BRSNW [7],0%
same,post-emergence activity against ECHCG,ECHCG [8],90%
same,pre-emergence activity against AMARE,AMARE [9],90%
same,pre-emergence activity against SETVI,SETVI [10],100%
same,post-emergence activity against ECHCG,ECHCG [11],80%
same,post-emergence activity against ALOMY,ALOMY [12],80%
same,pre-emergence activity against BRSNW,BRSNW [13],20%
same,pre-emergence activity against MATIN,MATIN [14],90%
same,pre-emergence activity against SETVI,SETVI [15],100%
same,post-emergence activity against STEME,STEME [16],90%
same,post-emergence activity against MATIN,MATIN [17],90%
same,pre-emergence activity against ABUTH,ABUTH,90%
same,pre-emergence activity against KCHSC,KCHSC [18],90%
same,post-emergence activity against ZEAMX,ZEAMX,10%
same,post-emergence activity against ORYZA,ORYZA [19],20%
same,post-emergence activity against LOLRI,LOLRI [20],90%
same,pre-emergence activity against STEME,STEME [21],90%
same,pre-emergence activity against ALOMY,ALOMY [22],90%
same,pre-emergence activity against LOLRI,LOLRI [23],80%
same,pre-emergence activity against MATIN,MATIN [24],80%
same,pre-emergence activity against ALOMY,ALOMY [25],90%
same,post-emergence activity against GLXMA,GLXMA [26],20%
same,pre-emergence activity against GLXMA,GLXMA [27],20%
same,pre-emergence activity against ECHCG,ECHCG [28],100%
same,pre-emergence activity against AMARE,AMARE [29],90%
same,pre-emergence activity against ECHCG,ECHCG [30],90%
same,pre-emergence activity against LOLRI,LOLRI [31],100%
